We go through 1 compound from article PMC4332668, “Characterization of a Novel PQQ-Dependent Quinohemoprotein Pyranose Dehydrogenase from Coprinopsis cinerea Classified into Auxiliary Activities Family 12 in Carbohydrate-Active Enzymes” (PLoS ONE, 2015).

This test deals with T1, DHPDH (Coprinopsis cinerea, UniProt A8P0V4).
T1 construct: gene PDH; isolated PQQ (AA12) dehydrogenase domain, residues 240-649, recombinant from Pichia pastoris, purified as apo-form
T1 sequence (A8P0V4 240-649): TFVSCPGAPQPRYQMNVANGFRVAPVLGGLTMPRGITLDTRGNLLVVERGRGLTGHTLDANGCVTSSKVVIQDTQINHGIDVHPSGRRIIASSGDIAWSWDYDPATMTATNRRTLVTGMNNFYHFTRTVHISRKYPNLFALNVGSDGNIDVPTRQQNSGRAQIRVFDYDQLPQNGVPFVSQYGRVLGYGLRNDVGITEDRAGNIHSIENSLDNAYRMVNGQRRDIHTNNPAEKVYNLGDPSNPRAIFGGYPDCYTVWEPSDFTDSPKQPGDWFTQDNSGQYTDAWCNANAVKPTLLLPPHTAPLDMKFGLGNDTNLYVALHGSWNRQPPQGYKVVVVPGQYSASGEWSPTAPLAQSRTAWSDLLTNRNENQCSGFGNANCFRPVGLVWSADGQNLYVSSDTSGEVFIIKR
The experiment in a line: UV-vis spectral reduction of PQQ; PMS/DCPIP assay. Format: biochemical. The settings on record: holo-form; 1 mM L-fucose; 50 mM HEPES pH 7.0; 1 mM CaCl2; room temperature (spectra).

`C[C@@H]1OC(O)[C@@H](O)[C@H](O)[C@@H]1O` (stereo partly drawn) [L-fucose]: the “UV-vis spectral reduction of PQQ; PMS/DCPIP assay” value is “The addition of L-fucose resulted in the reduction of PQQ”.
